The values below come from publication PMC6774960, “Design, synthesis and biological evaluation of a series of new resveratrol analogues as potential anti-cancer agents” (Royal Society Open Science, 2019).

One data set concerns A549 cells. In words: MTT anti-proliferation assay, A549. The class given is cell-based, human. To be noted: average of three determinations. As for the experimental part:
(§1) The 22 synthesized resveratrol compounds were evaluated for anti-proliferative activities against three human cancer cell lines, including HepG2, A549 and HeLa cells, using 3-[4,5-dimethylthiazol-2-yl]-2,5 diphenyl tetrazolium bromide (MTT) assays. Paclitaxel, a well-known tubulin inhibitor, was used as a positive control. […] Therefore, the inhibitory activity of the compounds depended not only on the 2-position substitution of acrylic acid, but also on the 3-position substitution of acrylic acid.
(§2) The anti-proliferative and cytotoxicity activity was determined using MTT assay. Human cervical carcinoma HeLa cells, human hepatocellular carcinoma HepG2 cells, human lung carcinoma A549 cells were representative in the anti-proliferation assay, which were obtained from the Shanghai Institute of Cell Biology (Shanghai, China). Normal African green monkey kidney Vero cells were a gift from Dr Xiumiao He at Guangxi University for Nationalities. Normal human hepatocytes LO2 cells were a gift from Dr Xing Lin at Guangxi Medical University. The HepG2, Hela, LO2 and Vero cells were cultured in Dulbecco's modified Eagle's medium (DMEM, Gibco) and the A549 cells were cultured in RPMI1640 (Gibco), both media were supplemented with 10% fetal calf serum and antibiotics (100 IU ml^−1 penicillin, 100 IU ml^−1 streptomycin; Amresco).
(§3) Cells were seeded in 96-well microtiter plates at a density of 1 × 10^4 cells well^−1 and incubated with different concentrations of compound (6.25, 12.50, 25.00, 50.00 to 100.00 µM), cisplatin and paclitaxel in RPMI-1640 or DMEM at 37°C with 5% CO2. After 24 h, cell morphology was observed using a light microscope, and then 20 µl of MTT solution (5 mg ml^−1) was added to the well and incubated for 4 h, then cell survival was determined by measuring the optical density (OD) absorbance at a wavelength of 570 nm using an ELISA microplate reader. The inhibition rate (IR) following each compound treatment was determined by the following equation: IR (%) = (1 − ODexp/ODcon) × 100%, where ODexp and ODcon are the OD of the treated and untreated cells, respectively. Cisplatin and paclitaxel were used as positive control drugs.
For orientation: Tetrazolium dyes change colour on reduction, which living cells bring about.

A further data set deals with HeLa cells. In words: MTT anti-proliferation assay, HeLa. To be noted: 24 h, average of three determinations. The class given is cell-based, human. As for the experimental part: The 22 synthesized resveratrol compounds were evaluated for anti-proliferative activities against three human cancer cell lines, including HepG2, A549 and HeLa cells, using 3-[4,5-dimethylthiazol-2-yl]-2,5 diphenyl tetrazolium bromide (MTT) assays. Paclitaxel, a well-known tubulin inhibitor, was used as a positive control.
as §2
After 24 h, cell morphology was observed using a light microscope, and then 20 µl of MTT solution (5 mg ml^−1) was added to the well and incubated for 4 h, then cell survival was determined by measuring the optical density (OD) absorbance at a wavelength of 570 nm using an ELISA microplate reader. […] Cisplatin and paclitaxel were used as positive control drugs.

A short description of data set [1]: MTT cytotoxicity test, Vero. It counts as cell-based, African green monkey. To be noted: African green monkey, Vero cells (normal African green monkey kidney), average of three determinations. As for the experimental part:
Vero cells are non-tumorigenic cell lines and are important raw materials as the research and production of biological products. Vero cells show low tumorigenicity and had been approved for use in the production of human virus vaccines. Thus, Vero cells were chosen as a control for cytotoxicity. All compounds were evaluated for their cell toxicity against Vero and normal human hepatocytes cells line (LO2) using MTT assays.
as §2, §3

For data set [2], the system named is HepG2 cells. In words: Morphologic observation by light microscope. To be noted: HepG2, 15 and 45 µM, 24 h. It counts as cell-based, human. As for the experimental part:
Morphological observations can directly reflect the effects of drugs on cells. HepG2 cells were cultured with increasing concentrations of compound r (0, 5, 15 and 45 µM) for 24 h and observed using a light microscope. The cell morphology was clearly altered with the increase in drug concentration (figure 2).
Figure 2. Effect of compound r on the microscopic examination of HepG2 cells. Morphology of HepG2 treated with compound r (0, 5, 15 and 45 µM) and cisplatin (20 µM) for 24 h. Light microscopy photographs, with 40× objective.
as §3

Data set [3] concerns HepG2 cells. Nature of the data set: MTT anti-proliferation assay, HepG2. The class given is cell-based, human. To be noted: average of three determinations. As for the experimental part:
as §1, §2, §3

In data set [4] the test system is HepG2 cells. Nature of the data set: Apoptosis analysis, Annexin V-FITC/PI flow cytometry. The class given is cell-based, human. To be noted: 24 h. As for the experimental part:
To investigate the effect of compound r on the apoptosis of HepG2 cells, cells were treated with different concentrations of compound r (0, 5, 15 and 45 µM) for 24 h and apoptosis was detected by flow cytometry analysis.
Figure 4. Effect of compound r on the apoptosis in HepG2 cells. Analysis of compound r induced apoptosis in HepG2 cells. The HepG2 cells were treated with 0, 5, 15 or 45 µM by flow cytometry. Cells were stained using propidium iodide (IP) and fluorescein isothiocyanate (FITC). The data manifested the percentage of early apoptotic cells (lower right) or late apoptosis and cell death (upper right) in each quadrant. TEXT PRINTED IN THE PICTURE: control: 7.22% (20 μM); 51.10% (20 μM); 18.67% (20 μM); 23.01% (20 μM) | compound r: 10.95% (low (5 μM)); 22.17% (low (5 μM)); 45.61% (low (5 μM)); 21.27% (low (5 μM)); 10.26% (middle (15 μM)); 18.51% (middle (15 μM)); 33.78% (middle (15 μM)); 37.45% (middle (15 μM)); 7.78% (high (45 μM)); 32.94% (high (45 μM)); 28.71% (high (45 μM)); 30.57% (high (45 μM)) DOUBTS OF THE COPYIST ABOUT THIS PICTURE: The quadrant percentages have no printed measure. For each plot they are listed in the order upper left, upper right, lower left, lower right (axes PI vs annexin V FITC). / The blank (0 μM) plot prints 0.00%, 0.01%, 99.91% (faint, partly hidden by dots, uncertain) and 0.08%. It is left out because no substance is present. / control (20 μM): 18.67% and 23.01% are partly overlaid by dots, so the digits are not fully certain. / compound r, low (5 μM): 21.27% is partly overlaid by dots; the first digit could be 2 or 3. 45.61% is in small print. / compound r, middle (15 μM): 33.78% and 37.45% are in small print, so 3/8 are not fully certain. / compound r, high (45 μM): 30.57% is partly overlaid by dots, and 28.71% is in small print. / The label 'compound r' is printed only on the axis of the bar chart. The scatter plots themselves are labelled only low, middle and high.
HepG2 cells seeded in 6-well plates were treated with compound r (0, 5, 15, 45 µM) or cisplatin (20 µM) for 24 h. […] The stained cells were detected via a flow cytometer.
(A flow cytometer gives signals particle by particle.)

As usually defined, the IC50 is the concentration at which inhibition is half-maximal. The term CC50 denotes the concentration at which the toxic effect on the cells reaches its halfway point. As for `COc1ccc(C(=Cc2cc(C(F)(F)F)ccc2Cl)C(=O)O)cc1` [compound r, 3-(2-chloro-5-(trifluoromethyl)phenyl)-2-(4-methoxyphenyl) acrylic acid], the IC50 with A549 cells (24 h) worked out at 3.8 ± 0.3 µM; with A549 cells (Homo sapiens, A549, 24 h), 3.77 µM; with HeLa cells it was 4.8 ± 0.8 µM; with HeLa cells (Homo sapiens, HeLa) it was 4.79 µM; with HepG2 cells [3] (24 h), 7 ± 1 µM; with HepG2 cells [3] (Homo sapiens, HepG2, 24 h), 7.49 µM. The compound further gave a CC50 at 24 h in data set [1] of 84 ± 3 µM. In the data set on HepG2 cells [2], the cell morphology entry is “shrinkage, rounding and detachment from the plate surface”. Moreover, the apoptotic cell population in the data set with HepG2 cells [4] (HepG2, 5 µM) came out at 43.44%; in the data set on HepG2 cells [4] (HepG2, 15 µM), 55.96%; in the data set with HepG2 cells [4] (HepG2, 45 µM), 63.51%.
